The values that follow come from patent US9212381B2, “Methods and compositions for labeling polypeptides” (President and Fellows of Harvard College, priority 2011, dated 2015).

“Also recorded” adds a separate entry of the source.

Assay [1] relates to protein translation in rabbit reticulocyte lysates. Kind of assay: in vitro translation of 35S-Met-labeled GFP-SuFu in rabbit reticulocyte lysates, SDS-PAGE and autoradiography. As to conditions: for inhibition of protein translation in vitro: varying concentrations, 1 hour at 30° C. In kind it is biochemical. How it is done:
(§1) A plasmid carrying a GFP fusion of the mouse Suppressor of Fused (SuFu) gene under the control of an SP6 RNA polymerase promoter was used to generate 35[S]-Met-labeled GFP-SuFu by in vitro translation in rabbit reticulocyte lysates (TNT SP6 Quick coupled transcription/translation kit, Promega), according to the manufacturer's instructions. Translation reactions were performed for 1 hour at 30° C., in the absence or presence of varying concentrations of puro and OP-puro. The reactions were stopped by addition of SDS-PAGE sample buffer with 50 mM DTT and boiling. Equal amounts of lysate were separated by SDS-PAGE and the amount of in vitro translated GFP-SuFu was determined by autoradiography.
as §1, with “^35S-Met-labeled” for “35[S]-Met-labeled”, “AE-puro (azido-puromycin, FIG. 5A).” for “OP-puro.”

The subject of assay [2] is Cells. As to conditions: Beatty et al. 2002; cited from earlier work.
For assay [3], the system named is NIH-3T3 cells. Kind of assay: OP-puro labeling of cultured cells, CuAAC with Alexa568-azide, fluorescence microscopy. In kind it is cell-based. As for the experimental part: NIH-3T3 cells were grown on glass coverslips in Dulbecco modified Eagle's medium (DMEM) supplemented with 10% bovine calf serum, penicillin and streptomycin. OP-puro was added to cells in complete culture medium. After incubation for the desired amount of time, the cells were washed with PBS and then fixed with cold methanol for 2 minutes at −20° C. The cells were washed with TBS (10 mM Tris pH 7.5, 150 mM NaCl), permeabilized with TBST (TBS with 0.2% Triton X-100), and then washed with TBS again. CuAAC detection of OP-puro incorporated into nascent protein was performed by reacting the fixed cells for 30 minutes at room temperature with 20 μM Alexa568-azide, as described (Salic et al., Proc. Natl. Acad. Sci. USA 105(7):2415-2420 (2008)). Cu(I) was generated in situ from CuSO4 and ascorbic acid. After staining, the coverslips were washed several times with TBST, counterstained with Hoechst, and mounted in standard mounting media. The stained cells were imaged by DIC and by epi-fluorescence microscopy on a Nikon TE2000U microscope equipped with an OrcaER camera (Hammamatsu), and 20× PlanApo 0.75 NA and 40× PlanApo 0.95 NA air objectives (Nikon). Images were collected using Metamorph image acquisition software (Applied Precision).
To determine if protein synthesis is required for OP-puro incorporation into nascent polypeptides, cells were incubated with OP-puro, in the presence or absence of 50 micrograms/mL cycloheximide (CHX), added to the cells 15 minutes before OP-puro. This concentration of CHX was determined to completely block protein translation in cells.
To determine the effect of inhibiting the proteasome on the stability of OP-puro-conjugated polypeptide chains, cells were pulse-labeled with 50 microM OP-puro for 15 minutes and were then incubated in complete media supplemented with 50 micrograms/mL CHX (to block further incorporation of OP-puro into nascent proteins), in the presence or absence of 5 microM of the proteasome inhibitor bortezomib. Cells were fixed at the indicated times and were stained in parallel with Alexa568-azide. Two negative controls were used: 1) untreated cells; and 2) cells pre-incubated with 50 micrograms/mL CHX for 15 minutes, followed by incubation with 50 microM OP-puro and 50 micrograms/mL CHX for another 15 minutes.

Assay [4] relates to nascent proteins in mouse tissues. The assay is described as follows: imaging of protein synthesis in whole animals with OP-puro, CuAAC with TMR-azide. In kind it is in vivo. As for the experimental part:
One hundred microliters of a 20 mM solution of OP-puro in PBS were injected intraperitoneally into a 3-week old mouse, while a mouse injected with 100 microliters of PBS was used as negative control. Various organs were harvested after one hour and were fixed in formalin overnight. Organ fragments were embedded in paraffin, sectioned, and washed with xylene to remove the paraffin. After washing with ethanol and rehydration in TBS, the tissue sections were stained with 20 microM tetramethylrhodamine(TMR)-azide, as described (Salic et al., Proc. Natl. Acad. Sci. USA 105(7):2415-2420 (2008)). The tissue sections were counterstained with Hoechst, mounted in standard mounting media and were then imaged by fluorescence microscopy and DIC.

In assay [5] the test system is Human 293T cells. Kind of assay: affinity purification of nascent polypeptide-OP-puro conjugates (CuAAC with biotin azide, beads, autoradiography). As to conditions: 25 microM OP-puro, 1 hour, FIG. 1E. The format is cell-based. As for the experimental part:
Human 293T cells were labeled for 1 hour in Met-free DMEM supplemented with 10% dialyzed fetal bovine serum and 35[S]-Met (100 microCi/mL final). The cells were then incubated in the same media, in the presence of 10 microM puro, 25 microM OP-puro or 25 microM OP-puro and 50 micrograms/mL CHX, for an additional 1 hour. The cells were harvested, washed with ice cold PBS and then lyzed on ice in 100 mM Tris pH 8.5 with 1% Triton-X10 and protease inhibitors. The lysates were clarified by centrifugation for 15 minutes at 20,000 g and 4° C., and were then subjected to CuAAC with biotin azide for 30 minutes at room temperature. The final concentrations in the CuAAC reaction were: 100 microM biotin azide, 1 mM CuSO4 and 50 mM ascorbic acid (added last to the lysates). Biotinylated proteins were diluted in binding buffer (20 mM Tris pH 8, 500 mM NaCl, 1% Triton-X100) and were bound to Neutravidin beads (Pierce). After extensive washes with binding buffer, bound proteins were eluted, separated by SDS-PAGE and detected by autoradiography.

Assay [6] has as its system human embryonic kidney 293T cells. The assay is described as follows: translation inhibition in cells: 35S-Met bulk protein translation, SDS-PAGE and autoradiography. In kind it is cell-based. As for the experimental part:
To measure translation inhibition in cells, human embryonic kidney 293T cells were pre-incubated for 30 minutes with varying concentrations of puro or OP-puro, in complete media. The cells were then incubated for 3 hours in Met-free media supplemented with 35[S]-Met (from Perkin-Elmer, at 100 microCi/mL final concentration), in the continued presence of varying concentrations of puro or OP-puro. The cells were harvested, lyzed in TBS with 1% Triton X-100 and protease inhibitors (Complete tablets, Roche), and centrifuged for 15 minutes at 20,000 g in a refrigerated centrifuge. The clarified cells lysates were analyzed by SDS-PAGE, followed by autoradiography, to measure bulk protein translation.

Take `CN(C)c1ncnc2c1ncn2[C@@H]1O[C@H](CO)[C@@H](NC(=O)[C@@H](N)Cc2ccc(OCCN=[N+]=[N-])cc2)[C@H]1O` [AE-puro, (S)-2-Amino-3-(4-(2-azidoethoxy)phenyl)-N-((2S,3S,4R,5R)-5-(6-(dimethylamino)-9H-purin-9-yl)-4-hydroxy-2(hydroxymethyl)tetrahydrofuran-3-yl)propanamide]: the “potency of protein synthesis inhibition compared with unmodified puromycin” value in assay [1] (reticulocyte lysates, FIG. 5B) was “equal to that of unmodified puromycin”. Further, the “inhibition of protein translation in vitro” value in assay [1] was “inhibits protein synthesis in a dose-dependent manner”.

On to `[N-]=[N+]=NCC[C@H](N)C(=O)O` [Aha, azidohomoalanine], for which, in assay [2], the “factor by which cells prefer Met over the analog” value was “about 500”.

`C[C@@H]1C[C@@H]([C@H](O)CC2CC(=O)NC(=O)C2)C(=O)[C@@H](C)C1` [CHX, cycloheximide, reference compound]: the “effect on OP-puro incorporation / conjugate formation” value in assay [3] (CHX 50 micrograms/mL) is on record as “abolished; also recorded: do not form”. Further, the “concentration determined to completely block protein translation in cells” value in assay [3] (added 15 minutes before OP-puro) was 50 micrograms/mL.

As to `C#CCCC(N)C(=O)O` (stereo not drawn) [Hpg, homopropargylglycine], the “factor by which cells prefer Met over the analog” value in assay [2] is “about 500”.

Take `C#CCOc1ccc(C[C@H](N)C(=O)N[C@H]2[C@@H](O)[C@H](n3cnc4c(N(C)C)ncnc43)O[C@@H]2CO)cc1` [OP-puro, (S)-2-Amino-N-((2S,3S,4R,5R)-5-(6-(dimethylamino)-9H-purin-9-yl)-4-hydroxy-2-(hydroxymethyl)tetrahydrofuran-3-yl)-3-(4-(prop-2-yn-1-yloxy)phenyl)propanamide]: the “potency of protein synthesis inhibition, fold lower than that of unmodified puro” value in assay [1] (reticulocyte lysates, FIG. 1C) was 2-3 fold; in assay [6] (cultured cells, FIG. 1D), 2-3 fold. Further, the “inhibition of protein translation in vitro” value in assay [1] was “inhibits protein synthesis in a dose-dependent manner”. Also, the “OP-puro incorporation into nascent proteins in tissues” value in assay [4] (100 microliters 20 mM intraperitoneally, organs harvested after 1 hour) is recorded as “specific patterns of OP-puro incorporation into nascent proteins”. In assay [4] (intraperitoneal, 1 hour, FIG. 3A/3B), the “OP-puro staining pattern, small intestine” value is “strongest in cells in the crypts and at the base of intestinal villi; also recorded: stains strongly the cells in the crypts (particularly Paneth cells) and the cells at the base of the villi”. The “OP-puro staining, muscle” value in assay [4] (intraperitoneal, 1 hour, FIG. 3C) was “striking striated pattern; also recorded: Sarcomeres are strongly stained”. In addition, the “OP-puro staining, liver” value in assay [4] (intraperitoneal, 1 hour, FIG. 4A) is on record as “strongest in hepatocytes; also recorded: stains strongly all hepatocytes”. Moreover, the “OP-puro staining, spleen” value in assay [4] (intraperitoneal, 1 hour, FIG. 4C) is listed as “strongest OP-puro signal is found at the organ's periphery, under the capsule”. In addition, in assay [5], the “formation of conjugates with nascent polypeptide chains” value is “formed conjugates with 35[S]-Met-labeled nascent polypeptide chains”. Moreover, the “concentration that blocked protein synthesis almost completely” value in assay [6] (cell type not stated at the place) was 25 µM. For the same compound, the “fluorescent signal versus OP-puro concentration” value in assay [3] (1 hour incubation, Alexa568-azide, FIG. 2A) is on record as “specific fluorescent signal proportional to the concentration of OP-puro; also recorded: proportional to the concentration of added OP-puro”. The “cytoplasmic OP-puro signal at later time points” value in assay [3] (3 hour image of FIG. 2B) was “significantly decreased”. For the same compound, the “incubation time after which a strong signal was seen” value in assay [3] (FIG. 2B) stood at 15 min. Also, the “concentration sufficient to completely block protein synthesis” value in assay [3] (stated in legend of FIG. 2B) was found to be 50 µM.

On to `CC(C)C[C@H](NC(=O)[C@H](Cc1ccccc1)NC(=O)c1cnccn1)B(O)O` [bortezomib, reference compound], for which, in assay [3] (5 microM bortezomib in chase, FIG. 2C), the “effect on stability of OP-puro conjugates” value is “become stable; also recorded: completely stabilized”.
